This is an account of results in article PMC7246765, “Development of a Radiofluorinated Adenosine A2B Receptor Antagonist as Potential Ligand for PET Imaging” (International Journal of Molecular Sciences, 2020).

The target of experiment [1] is T1, human adenosine A2A receptor (Homo sapiens, UniProt P29274).
T1 construct: host or cells: CHO or HEK cells
The conditions noted are these: cited from earlier work.

Experiment [2] has as its target T2, human adenosine A1 receptor (Homo sapiens, UniProt P30542).
T2 construct: host or cells: CHO or HEK cells
T2 sequence (P30542 1-326): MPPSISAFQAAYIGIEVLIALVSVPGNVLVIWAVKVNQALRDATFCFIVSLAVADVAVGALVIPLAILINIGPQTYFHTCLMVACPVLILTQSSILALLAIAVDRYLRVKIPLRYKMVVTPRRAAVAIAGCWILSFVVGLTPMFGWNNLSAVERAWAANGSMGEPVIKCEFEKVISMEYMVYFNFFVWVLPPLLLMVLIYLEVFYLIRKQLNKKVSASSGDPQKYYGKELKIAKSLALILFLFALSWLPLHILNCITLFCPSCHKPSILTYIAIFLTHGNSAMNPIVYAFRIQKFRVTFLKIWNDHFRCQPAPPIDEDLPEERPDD
Put plainly: Competitive radioligand binding with [3H]CCPA, membranes of CHO or HEK cells. The conditions noted are these: ratio of Ki values. The procedure: (§1) The binding affinities of 2 and 9 at the four human adenosine receptor subtypes A2B, A2A, A1, and A3, presented in Table 1, were determined in competitive binding assays using appropriate radioligands and membrane preparations of Chinese hamster ovary (CHO) cells or human embryonic kidney (HEK) cells, respectively, recombinantly expressing the corresponding human receptor subtype.
(§2) Membrane preparations of recombinant CHO or HEK (human embryonic kidney) cells expressing the respective human adenosine receptor subtype were obtained according to Borrman et al. or purchased from Perkin Elmer, Germany. Radioligand binding assays using human A1, A2A, A2B and A3 receptors were performed according to Alnouri et al..
[^3H]2-Chloro-N^6cyclopentyladenosine ([^3H]CCPA, molar activity: 58 Ci/mmol, 1 nM [28]) for the A1 receptor,
(§3) [^3H](R)-8-ethyl-4-methyl-2-(phenyl)1,4,7,8-tetrahydro-5H-imidazo[2,1-i]purin-5-one ([^3H]PSB-11, molar activity: 53 Ci/mmol, 1 nM [30]) for the A3 receptor. Three separate experiments were performed to determine the Ki values. All data were analyzed with GraphPad Prism, Version 4.1 (GraphPad Inc., La Jolla, CA,USA).

For experiment [3], the target named is T3, human adenosine A3 receptor (Homo sapiens, UniProt P0DMS8).
T3 construct: host or cells: CHO or HEK cells
T3 sequence (P0DMS8 1-318): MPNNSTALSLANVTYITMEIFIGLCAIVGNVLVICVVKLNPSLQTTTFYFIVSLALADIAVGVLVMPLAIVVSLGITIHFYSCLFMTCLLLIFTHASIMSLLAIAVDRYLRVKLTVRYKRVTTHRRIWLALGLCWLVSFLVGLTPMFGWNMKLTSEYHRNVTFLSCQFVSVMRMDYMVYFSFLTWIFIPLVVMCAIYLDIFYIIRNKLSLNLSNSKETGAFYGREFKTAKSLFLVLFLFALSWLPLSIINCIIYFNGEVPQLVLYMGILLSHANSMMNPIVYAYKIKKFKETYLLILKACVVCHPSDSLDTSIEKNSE
The conditions noted are these: cited from earlier work.

Experiment [4] concerns the target T1, human adenosine A2A receptor. As to the kind of experiment: Competitive radioligand binding with [3H]MSX-2, membranes of CHO or HEK cells. The conditions noted are these: ratio of Ki values. The procedure:
as §1, §2
[^3H]3-(3-hydroxypropyl)-7-methyl-8-(m-methoxystyryl)-1-propargylxanthine, ([^3H]MSX-2, molar activity: 84 Ci/mmol, 1 nM [29]) for the A2A receptor,
as §3

The target of experiment [5] is T2, human adenosine A1 receptor. The conditions noted are these: cited from earlier work.
The target of experiment [6] is T3, human adenosine A3 receptor. Put plainly: Competitive radioligand binding with [3H]PSB-11, membranes of CHO or HEK cells. The conditions noted are these: ratio of Ki values. The procedure:
as §1, §2, §3

Experiment [7] addresses T4, human adenosine A2B receptor (Homo sapiens, UniProt P29275).
T4 construct: host or cells: CHO or HEK cells
T4 sequence (P29275 1-332): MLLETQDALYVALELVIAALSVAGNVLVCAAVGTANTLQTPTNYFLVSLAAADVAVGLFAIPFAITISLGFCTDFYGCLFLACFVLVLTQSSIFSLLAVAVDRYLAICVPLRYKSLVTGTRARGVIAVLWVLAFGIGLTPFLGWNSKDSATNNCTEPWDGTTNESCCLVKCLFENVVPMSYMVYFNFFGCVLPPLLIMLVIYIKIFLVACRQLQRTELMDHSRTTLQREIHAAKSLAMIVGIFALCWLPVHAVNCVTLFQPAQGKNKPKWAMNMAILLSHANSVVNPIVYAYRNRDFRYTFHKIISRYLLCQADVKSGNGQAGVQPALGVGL
The conditions noted are these: cited from earlier work.

T1 sequence (P29274 whole entry): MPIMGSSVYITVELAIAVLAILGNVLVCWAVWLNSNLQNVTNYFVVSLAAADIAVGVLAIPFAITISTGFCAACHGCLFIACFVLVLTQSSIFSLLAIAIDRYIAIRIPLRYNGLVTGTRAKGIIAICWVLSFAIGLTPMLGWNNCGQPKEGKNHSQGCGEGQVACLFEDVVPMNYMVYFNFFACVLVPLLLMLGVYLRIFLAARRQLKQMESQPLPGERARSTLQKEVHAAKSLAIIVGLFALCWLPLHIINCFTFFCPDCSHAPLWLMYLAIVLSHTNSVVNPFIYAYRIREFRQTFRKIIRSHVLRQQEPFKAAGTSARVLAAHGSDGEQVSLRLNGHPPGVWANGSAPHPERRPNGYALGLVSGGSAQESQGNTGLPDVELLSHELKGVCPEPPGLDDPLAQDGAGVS

Take `O=C(Nc1cnc(-c2ccnc(F)c2)c(-c2ccccc2F)n1)C1CC1` [Compound 1]: the Ki was 55 ± 6.1 nM in experiment [1], 796 ± 26 nM in experiment [3], 19 ± 5.2 nM in experiment [5] and 4.24 ± 0.04 nM in experiment [7]. Besides, the “Selectivity Ratio Ki(Ax)/Ki(A2B): A1/A2B” value in experiment [2] is given as 4.5. For the same molecule, in experiment [4], the “Selectivity Ratio Ki(Ax)/Ki(A2B): A2A/A2B” value turned out to be 13. In addition, the “Selectivity Ratio Ki(Ax)/Ki(A2B): A3/A2B” value in experiment [6] turned out to be 188.
